Results reported in paper PMC11663113 (Cell chemical biology, 2024).

Tests used:
[1] = tested on: A549 human non-small cell lung carcinoma (NSCLC) cells; format: cell-based; details: three days, same conditions as compound 11
[2] = target: T1, Pol η (Homo sapiens, UniProt Q9Y253); experiment: Pol η nucleotide incorporation assay; format: biochemical
T1 sequence (Q9Y253 1-432 limits assumed): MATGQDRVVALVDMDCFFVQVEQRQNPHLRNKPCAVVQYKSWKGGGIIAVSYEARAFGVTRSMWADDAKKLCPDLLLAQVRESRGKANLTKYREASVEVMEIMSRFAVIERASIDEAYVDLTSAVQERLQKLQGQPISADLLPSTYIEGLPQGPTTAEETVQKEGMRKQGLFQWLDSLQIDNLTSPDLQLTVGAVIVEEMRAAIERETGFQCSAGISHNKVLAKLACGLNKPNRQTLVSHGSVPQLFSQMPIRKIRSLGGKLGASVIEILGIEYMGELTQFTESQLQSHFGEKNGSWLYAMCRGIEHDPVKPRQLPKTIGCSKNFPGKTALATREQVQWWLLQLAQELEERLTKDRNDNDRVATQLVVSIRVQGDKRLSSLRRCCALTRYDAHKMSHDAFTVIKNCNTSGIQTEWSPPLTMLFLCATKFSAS

[3] = target: DNMT3A2–3L complex (Homo sapiens, UniProt Q9Y6K1); format: biochemical; details: [E]/[DNA] 1:2 versus 1:10, 10 μM
[4] = target: human DNMT1 (Homo sapiens, UniProt P26358); experiment: biochemical
[5] = tested on: CamA; format: biochemical
[6] = target: CcrM (Caulobacter vibrioides, UniProt P0CAW2); format: biochemical
[7] = target: TDG (Homo sapiens, UniProt Q13569); format: biochemical
[8] = target: T2, MBD4 (Mus musculus, UniProt Q9Z2D7); format: biochemical; details: inhibitor 2 μM
T2 sequence (Q9Z2D7 411-554 limits assumed): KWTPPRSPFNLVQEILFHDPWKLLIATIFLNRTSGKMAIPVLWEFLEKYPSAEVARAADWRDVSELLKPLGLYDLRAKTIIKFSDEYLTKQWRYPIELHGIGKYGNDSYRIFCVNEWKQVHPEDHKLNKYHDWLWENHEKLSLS

[9] = target: T3, MYH (Mus musculus, UniProt Q99P21); format: biochemical; details: inhibitor 2 μM
T3 sequence (Q99P21 1-515): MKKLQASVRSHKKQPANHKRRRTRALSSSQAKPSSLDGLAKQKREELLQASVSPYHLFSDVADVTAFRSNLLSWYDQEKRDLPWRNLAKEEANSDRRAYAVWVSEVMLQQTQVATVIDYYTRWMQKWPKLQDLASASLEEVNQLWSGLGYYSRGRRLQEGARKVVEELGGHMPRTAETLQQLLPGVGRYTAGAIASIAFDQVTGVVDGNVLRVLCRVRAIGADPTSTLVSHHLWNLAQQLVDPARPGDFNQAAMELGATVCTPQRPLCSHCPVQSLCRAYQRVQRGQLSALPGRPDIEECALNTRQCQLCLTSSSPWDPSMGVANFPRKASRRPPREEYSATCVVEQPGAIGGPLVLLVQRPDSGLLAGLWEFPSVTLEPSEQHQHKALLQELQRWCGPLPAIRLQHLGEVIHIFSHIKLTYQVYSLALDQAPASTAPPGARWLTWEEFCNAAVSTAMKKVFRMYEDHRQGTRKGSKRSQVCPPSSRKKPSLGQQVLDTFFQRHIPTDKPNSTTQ

[10] = tested on: Pol θ; format: biochemical, Human; details: 50 μM
[11] = target: Dam (Escherichia coli, UniProt P0AEE8); format: biochemical
Dam, sequence (P0AEE8 whole entry): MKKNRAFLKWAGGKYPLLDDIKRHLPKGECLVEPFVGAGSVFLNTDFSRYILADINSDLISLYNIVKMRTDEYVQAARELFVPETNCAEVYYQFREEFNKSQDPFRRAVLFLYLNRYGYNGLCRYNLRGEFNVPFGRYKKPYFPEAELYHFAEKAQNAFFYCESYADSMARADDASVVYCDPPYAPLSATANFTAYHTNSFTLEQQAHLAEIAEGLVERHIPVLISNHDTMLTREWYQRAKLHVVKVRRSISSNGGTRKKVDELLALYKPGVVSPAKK

CcrM, sequence (P0CAW2 whole entry): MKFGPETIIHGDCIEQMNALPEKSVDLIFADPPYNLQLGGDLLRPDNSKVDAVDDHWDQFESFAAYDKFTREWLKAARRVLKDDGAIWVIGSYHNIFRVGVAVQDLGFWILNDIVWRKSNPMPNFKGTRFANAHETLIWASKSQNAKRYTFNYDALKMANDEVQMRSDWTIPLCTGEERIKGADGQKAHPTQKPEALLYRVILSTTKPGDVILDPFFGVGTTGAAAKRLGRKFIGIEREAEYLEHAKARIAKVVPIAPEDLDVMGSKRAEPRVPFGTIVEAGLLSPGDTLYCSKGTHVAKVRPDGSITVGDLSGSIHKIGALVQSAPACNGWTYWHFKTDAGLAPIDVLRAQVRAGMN
human DNMT1, sequence (P26358 350-1600): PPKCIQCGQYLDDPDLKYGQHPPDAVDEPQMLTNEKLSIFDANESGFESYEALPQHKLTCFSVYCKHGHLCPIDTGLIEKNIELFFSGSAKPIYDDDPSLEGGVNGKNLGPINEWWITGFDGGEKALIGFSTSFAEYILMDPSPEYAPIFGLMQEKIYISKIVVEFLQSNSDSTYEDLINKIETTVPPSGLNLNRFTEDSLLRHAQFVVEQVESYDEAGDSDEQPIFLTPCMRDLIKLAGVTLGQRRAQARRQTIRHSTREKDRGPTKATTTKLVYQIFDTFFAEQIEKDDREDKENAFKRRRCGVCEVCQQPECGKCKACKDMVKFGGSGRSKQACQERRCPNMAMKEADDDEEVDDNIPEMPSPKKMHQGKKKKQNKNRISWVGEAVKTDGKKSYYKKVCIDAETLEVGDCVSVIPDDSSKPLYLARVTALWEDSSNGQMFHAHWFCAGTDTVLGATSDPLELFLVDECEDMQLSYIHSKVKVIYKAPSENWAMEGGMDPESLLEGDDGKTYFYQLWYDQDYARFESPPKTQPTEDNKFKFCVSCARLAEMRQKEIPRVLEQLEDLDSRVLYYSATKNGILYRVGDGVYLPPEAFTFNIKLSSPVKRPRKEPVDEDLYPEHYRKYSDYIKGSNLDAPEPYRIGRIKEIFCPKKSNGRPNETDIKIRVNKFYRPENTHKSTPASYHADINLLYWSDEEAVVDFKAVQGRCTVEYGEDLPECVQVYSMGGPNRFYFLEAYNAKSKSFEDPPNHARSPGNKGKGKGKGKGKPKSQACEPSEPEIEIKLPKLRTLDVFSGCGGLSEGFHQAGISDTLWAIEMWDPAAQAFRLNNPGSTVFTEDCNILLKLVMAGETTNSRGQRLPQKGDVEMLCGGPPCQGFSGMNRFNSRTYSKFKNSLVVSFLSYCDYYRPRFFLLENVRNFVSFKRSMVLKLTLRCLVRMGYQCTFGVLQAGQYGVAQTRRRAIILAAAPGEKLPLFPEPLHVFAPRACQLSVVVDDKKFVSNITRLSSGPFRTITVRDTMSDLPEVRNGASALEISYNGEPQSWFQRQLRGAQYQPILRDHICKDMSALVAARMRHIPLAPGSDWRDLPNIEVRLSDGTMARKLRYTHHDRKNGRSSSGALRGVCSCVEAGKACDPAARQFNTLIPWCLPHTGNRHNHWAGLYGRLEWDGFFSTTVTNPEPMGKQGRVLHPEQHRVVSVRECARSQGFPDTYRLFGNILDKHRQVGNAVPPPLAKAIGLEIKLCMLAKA
TDG, sequence (Q13569 whole entry): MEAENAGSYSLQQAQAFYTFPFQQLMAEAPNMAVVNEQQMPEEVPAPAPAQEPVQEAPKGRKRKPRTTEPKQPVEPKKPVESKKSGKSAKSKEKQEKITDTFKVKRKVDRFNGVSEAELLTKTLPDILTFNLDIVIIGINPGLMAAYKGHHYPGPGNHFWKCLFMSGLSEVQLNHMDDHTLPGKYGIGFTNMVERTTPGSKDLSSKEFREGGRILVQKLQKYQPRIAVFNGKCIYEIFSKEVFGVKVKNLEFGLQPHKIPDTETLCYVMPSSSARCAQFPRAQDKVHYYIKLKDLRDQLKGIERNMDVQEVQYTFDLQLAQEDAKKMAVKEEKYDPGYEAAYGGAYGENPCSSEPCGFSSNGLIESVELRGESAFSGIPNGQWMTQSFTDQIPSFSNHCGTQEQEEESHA

Structure (SMILES): CCc1c(C#N)c(SC(C(N)=O)c2ccccc2)nc(N(C)C)c1C#N (centres unmarked) [GSK3484862]
- A549 cell viability / toxicity (in words) [1]: viabilities similar to control cells

Structure (SMILES): Nc1ncnc2c1ncn2[C@@H]1O[C@H](C[C@@H](N)CC[C@H](N)C(=O)O)[C@@H](O)[C@H]1O [sinefungin]
- impact on Pol η polymerase activity (in words) ([2]; 10 μM): no impact on polymerase activity
- change of DNMT3A2–3L inhibition as a function of DNA substrate concentration [3]: did not change
- inhibition at 10 µM ([4]; read-out: inhibition of DNMT1): ~50%
- inhibition of CamA (in words) [5]: limited inhibition
- inhibition of CcrM (in words) [6]: significant inhibition

Structure (SMILES): Cc1cc(Nc2ccc(NC(=O)c3ccc(Nc4ccnc5ccccc45)cc3)cc2)nc(N)n1 [Compound 1]
- inhibition of Pol η activity ([2]; 10 μM compound): more than 50%
- inhibition of TDG activity on T:G mismatch [7]: do not exhibit effective inhibition
- inhibition of MBD4 activity on T:G mismatch [8]: do not exhibit effective inhibition
- inhibition of MBD4 activity on U:G mismatch [8]: do not exhibit effective inhibition
- inhibition of DNMT1 ([4]; 10 μM compound, [E]/[DNA]=1:10): ~ 70%
- inhibition of CamA ([5]; 10 μM): less than 50%
- inhibition of MYH excision of adenine opposite 8-oxoG [9]: do not exhibit effective inhibition
- inhibition of CcrM (in words) [6]: no inhibitory effect at all
- inhibition of Pol θ activity [10]: ~ 50%
- inhibition of Dam (in words) [11]: no inhibitory effect at all

Structure (SMILES): OC[C@H]1O[C@@H](n2cnc3c(NCCCc4ccccc4)ncnc32)[C@H](O)[C@@H]1O [MC4741, (2R,3S,4R,5R)-2-(Hydroxymethyl)-5-(6-((3-phenylpropyl)-amino)-9H-purin-9-yl)tetrahydrofuran-3,4-diol]
- IC50 ([5]; read-out: IC50 against CamA): 700 nM
